The record followed here is publication PMC3276566, “Specialized Peptidoglycan Hydrolases Sculpt the Intra-bacterial Niche of Predatory Bdellovibrio and Increase Population Fitness” (PLoS Pathogens, 2012).

The target in experiment [1] is T1, Bd3459 (Bdellovibrio bacteriovorus, UniProt Q6MHT0, A37M/S70A).
T1 construct: E. coli BL21(DE3), modified pET41 (GST removed), Hi-Trap His column; about 46 kDa; likely monomer
The experiment is described as follows: fluorescent labelling, SDS-PAGE, Typhoon fluorescence scan. Type of experiment: binding. Conditions: active-site serine mutant; labelled compound; 1.25 ug/ml Bocillin-FL, 75 ug/ml protein, 20 mM sodium phosphate pH 4.8, 10 min, 37 °C.

Experiment [2] has as its target T2, Bd3459 (Bdellovibrio bacteriovorus, UniProt Q6MHT0, A37M).
T2 construct: E. coli BL21(DE3), modified pET41 (GST removed), Hi-Trap His column; about 46 kDa; likely monomer
The experiment is described as above. Format: binding. The conditions noted are these: covalent; labelled compound; 1.25 ug/ml Bocillin-FL, 75 ug/ml protein, 20 mM sodium phosphate pH 4.8, 10 min, 37 °C.

Experiment [3] addresses T2, Bd3459. The experiment is described as follows: HPLC muropeptide analysis of digested pentapeptide-rich peptidoglycan; also competition with Bocillin-FL labelling. The conditions noted are these: inhibitor pre-incubated at 0.4 mg/ml, 30 min, 37 °C; E. coli CS703-1 peptidoglycan, 20 mM sodium phosphate pH 4.8; labelling assay 2.5 ug/ml ampicillin. Format: biochemical.

T2 sequence (Q6MHT0 entry or part of it A37M): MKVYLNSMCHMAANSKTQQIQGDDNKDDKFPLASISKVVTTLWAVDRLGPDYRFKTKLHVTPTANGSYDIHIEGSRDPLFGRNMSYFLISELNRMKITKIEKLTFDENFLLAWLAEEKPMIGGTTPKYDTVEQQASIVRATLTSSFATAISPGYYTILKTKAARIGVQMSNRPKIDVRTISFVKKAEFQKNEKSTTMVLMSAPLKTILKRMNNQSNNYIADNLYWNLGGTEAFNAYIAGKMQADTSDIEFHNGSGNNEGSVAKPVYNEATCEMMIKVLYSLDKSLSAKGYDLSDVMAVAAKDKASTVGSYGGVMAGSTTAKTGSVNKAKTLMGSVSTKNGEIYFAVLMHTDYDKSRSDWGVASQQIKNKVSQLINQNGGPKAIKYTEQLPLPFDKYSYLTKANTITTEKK
T1 sequence (Q6MHT0 entry or part of it A37M/S70A): as the sequence (Q6MHT0 entry or part of it A37M) above, with S34A counted along it

Turning to `Cc1cc(C)n2c1C=C1C=CC(CCC(=O)Nc3ccc(OCC(=O)N[C@@H]4C(=O)N5[C@@H]4SC(C)(C)[C@@H]5C(=O)O)cc3)=[N+]1[B-]2(F)F` [Bocillin-FL], the “fluorescent labelling, SDS-PAGE, Typhoon fluorescence scan” value in experiment [1] is given as “Bd3459 (S70A) bound significantly less Bocillin-FL”; in experiment [2], “Bd3459 covalently bound the fluorescent beta-lactam Bocillin-FL”.

For the compound `CC1(C)S[C@@H]2[C@H](NC(=O)[C@H](N)c3ccccc3)C(=O)N2[C@H]1C(=O)O` [ampicillin], in experiment [3], the “HPLC muropeptide analysis of digested pentapeptide-rich peptidoglycan; also comp” value is reported as “The addition of the beta-lactam ampicillin inhibited the WT enzyme”.
